From PMC3628851, “Combined Approaches for Drug Design Points the Way to Novel Proline Racemase Inhibitor Candidates to Fight Chagas’ Disease” (PLoS ONE, 2013)
Read-outs that look alike come from different tables or passages of the source.

Assays:
non infected Vero cells = experiment: Viability of non infected Vero cells; format: cell-based, green monkey; conditions: 3, 10 and 30 µM
Method: Cell culture-derived trypomastigotes from T. cruzi CL Brener (clone F11-F5) were isolated from the supernatant of bulk cultures of green monkey Vero kidney cells previously infected with bloodstream trypomastigotes. Known numbers of parasites, adherent infected cells and uninfected cell controls were lysed with 0.1 mL of 0.05% Tween 20 solution in sterile distilled water and the lysates were frozen. Vero cells were seeded in LabTek slides (5×10^4 cells/well) in RPMI 1640 medium/5% FCS and kept at 37°C, 5% CO2. […] The number of infected host cells was recorded along with the number of parasites per infected cell in at least 400 host cells, in duplicate experiments. Results were expressed as the endocytic index (EI) resulting from the product of the percentage of infected cells and the mean number of parasites per infected cell. […]
To verify the potential of these new PRAC inhibitors as lead compounds in drug design strategies, we compared their effects on cultures of host Vero cells infected or not with T. cruzi, with that of PYC. […] The degree of infection was determined over 48 hours by capture ELISA. […]

TcPRAC [1] = target: T1, TcPRAC (Trypanosoma cruzi, UniProt Q4DA80); experiment: Inhibition of TcPRAC proline racemization measured by polarimetry; format: biochemical
T1 construct: His tag (inferred from nickel IMAC purification); made in house; host or cells: E. coli BL21 (DE3)
Method: (§1) Optimum Proline racemization conditions for TcPRAC were determined using 10–300 mM L-Proline in 0.2 M NaOAc over a range of pH values, as described and L- to D- proline conversion took place in 1.5 mL reaction. Concentrations of D-proline formed were determined by optical rotation of the solution at 365 nm in a 10 cm optical path cell, thermostated at 37°C, using a polarimeter (Perkin Elmer 241 MC). Assays were also performed into microtiter plates (100 µL), as follows: dilutions of L- Proline (40 mM to 2.5 mM) in 0.2 M sodium acetate pH 6.0 and 0.25 mM TcPRAC were loaded into microtiter plate wells with 0–20 µM PYC or similar concentrations of potential inhibitors. Controls omitted TcPRAC and/or PYC. The microtiter plates were incubated for 30 minutes at 37°C. The enzyme was inactivated by heating in a microwave oven for 15 s at 900 Watts and shifting the pH to 8.3 by adding 6.8 µL of 0.235 M sodium pyrophosphate. The presence of D-Proline was tested in 50 µL from each well using the D-amino oxidase - Horse Radish Peroxidase/OPD combined test. Interference caused by the possible reactivity of amino acid L-forms with DAAOx was taken into account by using standards consisting of serial dilutions of an equimolar mixture of D- and L-proline ranging from 0 to 10 mM (10 mM total). For instance, DAAOx reacts with L-Proline 300 times slower than with D-Proline. Optical densities, OD490 nm – OD650 nm were recorded on a microtiter plate reader (Molecular Devices), and the signals from the blank control wells were deducted.
(§2) Only two novel TcPRAC inhibitors, both provided by the CN, were identified among these (Figure 4B).

TcPRAC [2] = target: T1, TcPRAC; experiment: DAAOx test of D-proline formed by TcPRAC; format: biochemical; conditions: for D-Proline formed: inhibitor 10 µM, without inhibitor 5.0 µM
Method: as §1, §2

Solubility (qualitative) = format: physicochemical; conditions: for Solubility: solvent in which the compound is soluble, qualitative
T. cruzi [3] = experiment: Vero cell infection by T. cruzi trypomastigotes, endocytic index (Giemsa count); format: cell-based, Trypanosoma cruzi; conditions: for Endocytic index (EI): added with parasites, 17 h, Vero cells
Method: Cell culture-derived trypomastigotes from T. cruzi CL Brener (clone F11-F5) were isolated from the supernatant of bulk cultures of green monkey Vero kidney cells previously infected with bloodstream trypomastigotes. Known numbers of parasites, adherent infected cells and uninfected cell controls were lysed with 0.1 mL of 0.05% Tween 20 solution in sterile distilled water and the lysates were frozen. Vero cells were seeded in LabTek slides (5×10^4 cells/well) in RPMI 1640 medium/5% FCS and kept at 37°C, 5% CO2. […] To test the effect of the inhibitors on the parasite intracellular cycle, […] different dilutions of the compounds. All cultures were then washed with PBS, fixed and stained with Giemsa. The number of infected host cells was recorded along with the number of parasites per infected cell in at least 400 host cells, in duplicate experiments. Results were expressed as the endocytic index (EI) resulting from the product of the percentage of infected cells and the mean number of parasites per infected cell. Control cultures were incubated in medium alone or with equal DMSO concentrations.
(§3) To verify the potential of these new PRAC inhibitors as lead compounds in drug design strategies, we compared their effects on cultures of host Vero cells infected or not with T. cruzi, with that of PYC. […] To determine whether the treatment of these cultures with the new compounds would indeed affect intracellular TcPRAC and as such interfere with parasite intracellular fate cells were then washed after parasite uptake and the same ligand concentrations as above (10 µM − 30 µM) were added to the cultures in fresh medium. The degree of infection was determined over 48 hours by capture ELISA. As expected, the number of parasites per well decreased in a dose-dependent manner (Figure 7). In vitro and in vivo experiments using mutant parasites that carry the luciferase gene are now in progress to support those data.

TcPRAC [4] = target: T1, TcPRAC; experiment: Kinetics of D-proline formation with time / enzyme inactivation (polarimetry); format: biochemical; conditions: for mode of TcPRAC inhibition: pre-incubation 5 or 10 min, 15 fold dilution, 300 mM L-proline
Method: Kinetic reaction assays using fixed amounts of dimeric PRAC (22 µg –0.24 µM final), 40 mM substrate and 10 µM of the identified inhibitors were performed to characterize their effect on enzymatic activity (Figure 5). […] To further characterize the mode of action of this two molecules, the enzyme was pre-incubated (concentration 22 µg − 3,6 µM) with different concentration of inhibitor, for 5 or 10 min to determine inhibition dependence to inhibitor concentration and pre-incubation time. Then, the reaction mixture was diluted 15 fold and residual activity was determined in an excess of substrate (300 mM of L- proline).
Figure 5 Kinetics of D-proline formation with time in the presence or absence of TcPRAC inhibitors. (A) Concentrations of D-proline formed were determined by polarimetry in reaction assays containing 0.15 µM of TcPRAC and 40 mM L proline (see Material and Methods).

TcPRAC [5] = target: T1, TcPRAC; experiment: TcPRAC inhibition by PYC derivatives (polarimetry and DAAO methodologies); format: biochemical
Method: Recombinant Trypanosoma cruzi proline racemase (EC 5.1.1.4) was produced in E. Coli BL21 (DE3) (Invitrogen) and purified by immobilized metal affinity chromatography on nickel columns, as previously described.
as §1

T. cruzi [6] = experiment: Vero cell infection by T. cruzi, total parasite numbers/culture by capture ELISA; format: cell-based, Trypanosoma cruzi
Method: Cell culture-derived trypomastigotes from T. cruzi CL Brener (clone F11-F5) were isolated from the supernatant of bulk cultures of green monkey Vero kidney cells previously infected with bloodstream trypomastigotes. Known numbers of parasites, adherent infected cells and uninfected cell controls were lysed with 0.1 mL of 0.05% Tween 20 solution in sterile distilled water and the lysates were frozen. Vero cells were seeded in LabTek slides (5×10^4 cells/well) in RPMI 1640 medium/5% FCS and kept at 37°C, 5% CO2. […] To test the effect of the inhibitors on the parasite intracellular cycle, cultures were infected at 37°C for 17 hours without inhibitors, washed three times to eliminate extracellular parasites then incubated for up to 48 hours with fresh medium containing different dilutions of the compounds. All cultures were then washed with PBS, fixed and stained with Giemsa. The number of infected host cells was recorded along with the number of parasites per infected cell in at least 400 host cells, in duplicate experiments. Results were expressed as the endocytic index (EI) resulting from the product of the percentage of infected cells and the mean number of parasites per infected cell. Control cultures were incubated in medium alone or with equal DMSO concentrations.
Flat-bottomed microtiter plates (Nunc, Denmark) were coated overnight at 4°C with rabbit anti-T. cruzi polyclonal antibodies and further blocked for 4 h at room temperature (RT) with 1% BSA, 0.05% Tween 20 in PBS. After washings, lysate samples from infected or control Vero cultures, or from T. cruzi, were then added and incubated at 4°C for 18 h. Plates were washed with PBS-Tween and incubated for 2 h at RT with polyclonal mouse anti-T. cruzi chronic serum, washed again and incubated for 1 h at RT with HRP-secondary antibodies. […] Optical densities were determined in a spectrophotometer at 450 nm and 650 nm, and analyzed by Softmax Pro software.
as §3
Total parasite numbers/culture were estimated by capture ELISA.

TcPRAC [7] = target: T1, TcPRAC; conditions: cited from earlier work
[8] = read-out: Racemization Inhibition
[9] = 10 µM inhibitor, 40 mM substrate, 0.24 µM PRAC
[10] = classical Michaelian approaches

T1 sequence (Q4DA80 32-423): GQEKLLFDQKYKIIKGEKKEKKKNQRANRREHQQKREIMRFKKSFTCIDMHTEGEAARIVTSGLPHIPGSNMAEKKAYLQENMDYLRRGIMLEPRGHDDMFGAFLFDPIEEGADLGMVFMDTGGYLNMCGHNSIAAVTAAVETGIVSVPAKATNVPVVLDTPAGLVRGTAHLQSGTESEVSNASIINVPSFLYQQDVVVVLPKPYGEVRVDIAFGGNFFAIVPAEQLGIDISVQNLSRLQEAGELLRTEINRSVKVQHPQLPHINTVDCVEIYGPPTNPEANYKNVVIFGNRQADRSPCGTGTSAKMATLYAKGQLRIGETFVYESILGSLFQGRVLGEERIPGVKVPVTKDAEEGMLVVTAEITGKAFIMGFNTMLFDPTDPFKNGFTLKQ

O=C(O)/C=C/C(=O)CBr [Br-OxoPA, (E)-5-bromo-4-oxopent-2-enoic acid]
viability of non infected Vero cells (non infected Vero cells): neither OxoPA nor Br-OxoPA considerably affected the viability | IC50 (TcPRAC [1]): 2.5 µM | inhibition at 2.5 µM (TcPRAC [1]; [8]): 50% | inhibition at 10 µM (TcPRAC [1]; [8]): 81.3% | inhibition of conversion of L- into D-proline relative to PYC (TcPRAC [2]; equivalent concentrations, DAAOx test): more than 5 times | D-Proline formed (TcPRAC [2]): <0.3 µM | solubility in water (Solubility (qualitative)): soluble | lower dose than PYC necessary to obtain the same endocytic index (T. cruzi [3]; 1000 µM PYC equivalent to 10 µM OxoPA or 30 µM Br-OxoPA): 30 fold | Endocytic index (EI) (T. cruzi [3]; inhibitor 3 µM): 78 | Endocytic index (EI) (T. cruzi [3]; inhibitor 10 µM): 42 | Endocytic index (EI) (T. cruzi [3]; inhibitor 30 µM): 29 | time at which plateau of enzyme inactivation is reached (TcPRAC [4]; [9]): 250 s | mode of TcPRAC inhibition (TcPRAC [4]): irreversible | more potent than PYC in inhibiting TcPRAC (TcPRAC [5]): 4 fold | percentage in Figure 7 (effect on total parasite numbers/culture, capture ELISA) (T. cruzi [6]; 5 µM): 24% | percentage in Figure 7 (effect on total parasite numbers/culture, capture ELISA) (T. cruzi [6]; 10 µM): 34% | percentage in Figure 7 (effect on total parasite numbers/culture, capture ELISA) (T. cruzi [6]; 30 µM): 39%

O=C(O)c1n[nH]cc1Br [Br-PZC, 4-bromo-1H-pyrazole-3-carboxylic acid]
Solubility (Solubility (qualitative)): Water | Ki (TcPRAC [5]; [10]): 1000 µM | Ki (TcPRAC [5]; values in text): ~1000 µM

O=C(O)c1n[nH]cc1Cl [Cl-PZC, 4-chloro-1H-pyrazole-3-carboxylic acid]
Solubility (Solubility (qualitative)): Water | Ki (TcPRAC [5]; [10]): 300 µM | Ki (TcPRAC [5]; values in text): ~300 µM

CCc1c[nH]nc1C(=O)O [Et-PZC, 4-Ethyl-pyrazole-3-carboxylic acid]
Solubility (Solubility (qualitative)): Water | Ki (TcPRAC [5]; [10]): > 2000 µM

Cc1[nH]nc(C(=O)O)c1Cl [M-Cl-PZC, 4-chloro-5-methyl-1H-pyrazole-3-carboxylic acid]
Solubility (Solubility (qualitative)): Ethanol | Ki (TcPRAC [5]; [10]): > 2000 µM

CC(=O)/C=C/C(=O)O [OxoPA, (E)-4-oxopent-2-enoic acid]
viability of non infected Vero cells (non infected Vero cells): neither OxoPA nor Br-OxoPA considerably affected the viability | IC50 (TcPRAC [1]): 3 µM | inhibition at 3 µM (TcPRAC [1]; [8]): 50% | D-Proline formed (TcPRAC [2]): <0.3 µM | time at which plateau of enzyme inactivation is reached (TcPRAC [4]; [9]): 350 s | mode of TcPRAC inhibition (TcPRAC [4]): irreversible | more potent than PYC in inhibiting TcPRAC (TcPRAC [5]): 2 fold | percentage in Figure 7 (effect on total parasite numbers/culture, capture ELISA) (T. cruzi [6]; 5 µM): 9% | percentage in Figure 7 (effect on total parasite numbers/culture, capture ELISA) (T. cruzi [6]; 10 µM): 14% | percentage in Figure 7 (effect on total parasite numbers/culture, capture ELISA) (T. cruzi [6]; 30 µM): 15%

O=C(O)c1ccc[nH]1 [PYC, 2-pyrrolecarboxylic acid, reference compound]
mode of TcPRAC inhibition (TcPRAC [7]): classical competitive and reversible | IC50 (TcPRAC [1]): 10 µM | inhibition at 10 µM (TcPRAC [1]; [8]): 56.9% | D-Proline formed (TcPRAC [2]): 2.4 µM (IC50) | solubility in water (Solubility (qualitative)): water-insoluble | Solubility (Solubility (qualitative)): Ethanol | Endocytic index (EI) (T. cruzi [3]; inhibitor 10 µM): 44 | Endocytic index (EI) (T. cruzi [3]; inhibitor 100 µM): 30 | Endocytic index (EI) (T. cruzi [3]; inhibitor 1000 µM): 25 | racemization speed of L-proline, % of original speed (TcPRAC [4]; [9]): ~37% | Ki (TcPRAC [5]; [10]): 6 to 10 µM | percentage in Figure 7 (effect on total parasite numbers/culture, capture ELISA) (T. cruzi [6]; 10 µM): 4% | percentage in Figure 7 (effect on total parasite numbers/culture, capture ELISA) (T. cruzi [6]; 100 µM): 2% | percentage in Figure 7 (effect on total parasite numbers/culture, capture ELISA) (T. cruzi [6]; 1 mM): 0%

O=C(O)c1cc[nH]n1 [PZC, 1H-pyrazole-3-carboxylic acid]
Solubility (Solubility (qualitative)): Water | Ki (TcPRAC [5]; [10]): > 2000 µM
